# Measured values published in patent US20110159122A1, “COMBINATION OF EXTRACTS OF VARIOUS PLANTS FOR IMPROVING THE SYMPTOMS OF DEMENTIA DISORDERS” (Kneipp-Werke Kneipp-Mittel-Zentrale GmbH & Co,KG, priority 2008, published 2011).
# How the values were obtained:
# central nervous system = assay: tele-stereo EEG (electroencephalography) of rats after oral administration; type: in vivo; details: for effect of the compound according to formula I reached by known rooibos constituents: approximately equimolar quantities
# Description: In the context of the present invention, the pharmacological activity of the compound according to the invention of formula I was compared with the known constituents of the rooibos extract, such as aspalathin, catechin or (−)-epicatechin.
# Since these drugs have a broad spectrum of side effects, the use of a rooibos extract with the compound according to formula I is advantageous as a drug because natural substances can usually be expected to have a lower rate of side effects. […] This is not generally commonplace for flavonoids.
# monoamine oxidase = details: Plantextrakt, 2005; cited from earlier work
# [1] = solubility during the preparation of the HPLC standard solutions; type: physicochemical; details: preparation of the standard solutions for HPLC
compound,measurement,setting,value
Oc1cc(O)c2c(c1)O[C@H](c1ccc(O)c(O)c1)[C@H](O)C2 [(−)-epicatechin],effect of the compound according to formula I reached by known rooibos constituents,central nervous system,cannot be achieved with approximately equimolar quantities
O=c1c(O)c(-c2ccc(O)c(O)c2)oc2cc(O)cc(O)c12 [Quercetin],inhibition of the production of monoamine oxidase,monoamine oxidase,capable of inhibiting the production of monoamine oxidase
O=C(CCc1ccc(O)c(O)c1)c1c(O)cc(O)c([C@@H]2O[C@H](CO)[C@@H](O)[C@H](O)[C@H]2O)c1O [aspalathin],effect of the compound according to formula I reached by known rooibos constituents,central nervous system,cannot be achieved with approximately equimolar quantities
"O=C(CCc1ccc(O)c(O)c1)c1c(O)c(C2OC(CO)C(O)C(O)C2O)c(O)c(C2c3c(O)cc(O)cc3OC(c3ccc(O)c(O)c3)C2O)c1O (centres unmarked) [compound of formula I, aspacat]",crossing of the blood-brain barrier,central nervous system; concluded from the in vivo EEG data,evidently also crosses the blood-brain barrier
same,discriminant analysis of the in vivo data,"central nervous system; rat, in vivo","a relationship with the drugs for the treatment of dementias, Morbus Parkinson, depression and painful conditions"
same,pharmacological activity on the central nervous system in tele-stereo EEG,"central nervous system; rats, oral administration",marked pharmacological activity on the central nervous system
same,changes in the EEG frequencies,"central nervous system; rats, oral administration, as known for galantamine, tacrine, L-DOPA, nefopam",dose-dependent changes in the EEG frequencies
same,pharmacological activity compared with known constituents of the rooibos extract,"central nervous system; versus aspalathin, catechin, (−)-epicatechin",higher pharmacological activity than these known constituents of the rooibos extract
"O=c1cc(-c2ccc(O)c(O)c2)oc2c([C@@H]3O[C@H](CO)[C@@H](O)[C@H](O)[C@H]3O)c(O)cc(O)c12 [orientin, orientin(luteolin-8-C-glucoside)]",solubility in standard solutions,[1],exhibited solubility problems
"O=c1cc(-c2ccc(O)cc2)oc2c([C@@H]3O[C@H](CO)[C@@H](O)[C@H](O)[C@H]3O)c(O)cc(O)c12 [vitexin, vitexin(apigenin-8-C-glucoside)]",solubility in standard solutions,[1],exhibited solubility problems
catechin,effect of the compound according to formula I reached by known rooibos constituents,central nervous system,cannot be achieved with approximately equimolar quantities
